Literature values as cited in article PMC4728427, “Mechanism of allosteric activation of TMEM16A/ANO1 channels by a commonly used chloride channel blocker” (British Journal of Pharmacology, 2016).
Where two headings read alike, the source gives them in different places.

Columns and labels:
CaCC currents (TMEM16A) = system: CaCC currents (TMEM16A); parameters: method as in Namkung et al., 2011b; conditions: ref Namkung et al., 2011b; read-out: EC50 activation of CaCC currents; cited from earlier work
ClC‐2 = system: ClC‐2; parameters: method as in Oh et al., 2013; conditions: ref Oh et al., 2013; cited from earlier work
CFTR = system: CFTR; parameters: method as in Oh et al., 2013; conditions: ref Oh et al., 2013; cited from earlier work
bestrophin 1 = system: bestrophin 1; parameters: method as in Oh et al., 2013; conditions: ref Oh et al., 2013; cited from earlier work
TMEM16A [1] = system: TMEM16A; parameters: method as in Oh et al., 2013; conditions: ref Oh et al., 2013; read-out: IC50 TMEM16A inhibition; cited from earlier work
[2] = system: head and neck squamous cell carcinoma; parameters: method as in Duvvuri et al., 2012; conditions: ref Duvvuri et al., 2012; cited from earlier work
TMEM16A [3] = system: TMEM16A; parameters: method as in Namkung et al., 2011a; conditions: ref Namkung et al., 2011a; read-out: IC50 TMEM16A inhibition; cited from earlier work

COCCN(C(=O)c1cc(OC)c(OC)c(OC)c1)c1nc(-c2ccccc2)cs1 [Eact]
EC50 (CaCC currents (TMEM16A)): 3000 to 6000 nM

COc1cc(Nc2ccc([N+](=O)[O-])cc2C(=O)O)cc2ccccc12 [MONNA]
interaction with ClC‐2 (ClC‐2): does not interact
interaction with CFTR (CFTR): does not interact
interaction with bestrophin 1 (bestrophin 1): does not interact
IC50 (TMEM16A [1]): ~1000 nM

CCc1c(C)nc(SCC(=O)Nc2nc(-c3ccc(OC)cc3)cs2)[nH]c1=O [T16inh‐A01]
tumour growth [2]: reduced tumour growth
IC50 (TMEM16A [3]): ~1000 nM
